# Where two headings read alike, the source gives them in different places.
# How the values were obtained:
# [1] = target: T1, GHB-DH fusion protein (Cupriavidus necator, UniProt Q59104); format: biochemical, Ralstonia eutropha; parameters: made in house; host or cells: E. coli pLysS cells (Novagene), vector pGEX-2T/GHB-DH
# Method: A number of potential stabilizing agents were tested for their suitability in stabilizing a formulation of a GST fusion protein comprising the R. eutropha SSA reductase. Enzymatic activity of the purified fusion protein was studied after storage in different formulations for 21 days at 4° C. […] A range of concentrations of ammonium sulfate and glycerol were tested. […] GHB-DH may contain bound iron and copper ions (Wolf, 1995), which chelating agents can sequester and thereby denature and/or inactivate the oxidoreductase.
# Enzymatic assay for GHB based on formation of NADH. GHB-DH activity was assayed at 23° C. in 1 ml of buffer (97 mM 2-amino-2-methyl-1,3-propanediol (AMPD) adjusted to pH 8.5 with HCl) containing 14 μg purified fusion protein and 1 mM NAD^+ in a cuvette of 1 cm path length at 23° C. (Valentin, 1995). Reaction was initiated by the addition of GHB to 20 mM, and formation of NADH was monitored by the increase in absorbance at 334 nm (FIG. 4A).
# Stability of fusion protein. The GHB-DH enzymatic activity of R. eutropha GHB-DH fusion protein was studied after storage for 21 days at 4° C. under various conditions (FIG. 5). Fourteen μg of protein was assayed using the method described in Example 4. Test enzyme solutions included the crude lysate, purified fusion protein at 7 mg/ml in 50 mM NaCl and 30 mM MOPS adjusted to pH 7.4 with NaOH, and purified fusion protein at 7 mg/ml in the same buffer also containing potential stabilizing agents.
# [2] = target: purified GHB-DH fusion protein (Cupriavidus necator, UniProt Q59104); conditions: for weaker affinity for GHB-DH than GHB: ethanol relative to GHB
# [3] = target: T1, GHB-DH fusion protein; format: biochemical, Ralstonia eutropha; parameters: made in house; host or cells: E. coli pLysS cells (Novagene), vector pGEX-2T/GHB-DH; remark: listed apart in the source
# [4] = 150-pound person, cited from earlier work
# [5] = target: T1, GHB-DH fusion protein; assay: Detection of GHB in human urine on filter paper
# [6] = target: T2, R. eutropha GHB-DH (Cupriavidus necator, UniProt Q59104); assay: Economical dipstick assay for GHB in alcoholic beverages after evaporation
# [7] = target: T2, R. eutropha GHB-DH; format: biochemical, Ralstonia eutropha; parameters: made in house; host or cells: E. coli pLysS cells (Novagene), vector pGEX-2T/GHB-DH; conditions: 20 mM GHB in the same concentrations of ethanol
# [8] = tested on: O=C(O)CCCO; assay: purified protein, by the assay type; conditions: other: GHB as substrate, 5 μg fusion protein, pH 8.5, 23° C.
# [9] = purified fusion protein 7 mg/ml, 21 days at 4° C.
compound,measurement,setting,value
"O[C@H](CS)[C@H](O)CS (racemic) [DTT, dithiothreitol]",effect of agent on enzyme activity during storage,[1]; [9],nearly completely inactivated enzyme activity
same,effect of agent on enzyme activity during storage,"[1]; purified fusion protein 7 mg/ml, 21 days at 4° C., listed as dithiothreitol",drastically diminished enzyme activity
"OCCS [BME, 2-mercaptoethanol]",effect of agent on enzyme activity during storage,[1]; [9],nearly completely inactivated enzyme activity
same,effect of agent on enzyme activity during storage,"[1]; purified fusion protein 7 mg/ml, 21 days at 4° C., listed as beta-mercaptoethanol",drastically diminished enzyme activity
"O=C(O)CN(CCN(CC(=O)O)CC(=O)O)CC(=O)O [EDTA, ethylene diamine tetraacetic acid]",effect of agent on enzyme activity during storage,[1]; [9],nearly totally inactivated enzyme activity
same,effect of agent on enzyme activity during storage,"[1]; purified fusion protein 7 mg/ml, 21 days at 4° C., listed as ethylene diamine tetraacetic acid",drastically diminished enzyme activity
"CCO [Ethanol, ethanol]",weaker affinity for GHB-DH than GHB,[2],about 200 fold
same,weaker affinity for GHB-DH than GHB,[2]; listed as ethanol,approximately 200 fold
same,color produced,[3]; all concentrations of ethanol tested,little or no color
"O=C(O)CCCO [GHB, 4-hydroxy-butanoic acid]",Vmax,[2]; GHB as substrate (FIG. 6A),0.049±0.001 A/min/μg
same,Vmax,"[2]; GHB as substrate, 5 μg fusion protein",0.049±0.001 Absorbance/min/μg fusion protein
same,effect in a person,[4]; 1-gram dose,low degree of effect
same,effect in a person,[4]; 2.5-gram dose,coma
same,color produced,[5]; 0.1 mM GHB in human urine,slight but definite purple
same,color produced,[5]; 0.3 mM GHB in human urine,substantial purple
same,GHB concentration in urine producing color,"[5]; human urine, dried or not dried, 5 minutes",≤ 0.1 mM
same,color developed,"[6]; 20 mM GHB in 25 alcoholic beverages, 2 minutes",intense purple color
same,GHB concentration detected in alcoholic beverages,"[6]; evaporated sample, 2 minutes reaction at 23° C.",≤ 1 mM
same,color produced on paper,[7],intense purple
same,GHB concentration readily detected,"[3]; conjugated filters, assay buffer, 23° C.",≤ 2 mM
N.N.O=S(=O)(O)O [ammonium sulfate],effect of agent on enzyme activity during storage,[1]; [9],somewhat deleterious
same,enzyme activity lost during storage,"[1]; range of concentrations of ammonium sulfate, 21 days at 4° C.",≥ 50%
OCC(O)CO [glycerol],effect of agent on enzyme activity during storage,"[1]; 5-20% glycerol, 4° C.",retained high degrees of enzyme activity
same,effect of agent on enzyme activity during storage,"[1]; 10% glycerol, 21 days, 4° C.",greatest retention
same,effect of agent on enzyme activity during storage,[1]; 50% glycerol at 4° C.,deleterious
oxidized glutathione,effect of agent on enzyme activity during storage,[1]; [9],drastically diminished enzyme activity
same,effect of agent on enzyme activity during storage,"[1]; purified fusion protein 7 mg/ml, 21 days at 4° C., listed as oxidized GSH",nearly totally inactivated enzyme activity
purified GHB-DH fusion protein (Cupriavidus necator),Km,[8],2190 ± 130 µM
reduced glutathione,effect of agent on enzyme activity during storage,[1]; [9],drastically diminished enzyme activity
same,effect of agent on enzyme activity during storage,"[1]; purified fusion protein 7 mg/ml, 21 days at 4° C., listed as reduced GSH",nearly totally inactivated enzyme activity

# Source: patent US6703216B2, “Methods, compositions and apparatuses for detection of gamma-hydroxybutyric acid (GHB)” (priority 2002, dated 2004)
